These results are taken from US20090304803A1, “Compositions and methods relating to target-specific photodynamic therapy” (The General Hospital Corporation, priority 2005, published 2009).

One data set addresses T1, ErbB3 receptor (Homo sapiens, UniProt P21860).
T1 construct: endogenous in cells; host or cells: OVCAR3 (target); PA-1 (non-expressing control)
Put plainly: ErbB3-specific aptamer localization in target and non-target cells, confocal microscopy. To be noted: 2 uM, 15 minutes at 4° C. then 20 minutes at 37° C. The data set is classed as cell-based. How it is done:
Both ErbB3-expressing cells (OVCAR3) and non-expressing cells (PA-1) were incubated with the ErbB3-specific aptamer and the cells were imaged using a confocal microscope. OVCAR3 (target) and PA-1 (non-target) cells were incubated with 2 uM ErbB3 specific aptamer (tagged on the 5′ end with Fluoroscein) for 15 minutes at 4° C. and then for 20 minutes at 37° C. The cells were then imaged using a confocal laser scanning microscope with 488 nm excitation. The fluorescence was collected using a 515 nm long pass filter.

Another data set has as its system HER2. The settings on record: cited from earlier work.
For a further data set, the system named is MCF7 cells. The settings on record: cited from earlier work.
The conditions of data set [1]: water; cited from earlier work.

T1 sequence (P21860 20-1342): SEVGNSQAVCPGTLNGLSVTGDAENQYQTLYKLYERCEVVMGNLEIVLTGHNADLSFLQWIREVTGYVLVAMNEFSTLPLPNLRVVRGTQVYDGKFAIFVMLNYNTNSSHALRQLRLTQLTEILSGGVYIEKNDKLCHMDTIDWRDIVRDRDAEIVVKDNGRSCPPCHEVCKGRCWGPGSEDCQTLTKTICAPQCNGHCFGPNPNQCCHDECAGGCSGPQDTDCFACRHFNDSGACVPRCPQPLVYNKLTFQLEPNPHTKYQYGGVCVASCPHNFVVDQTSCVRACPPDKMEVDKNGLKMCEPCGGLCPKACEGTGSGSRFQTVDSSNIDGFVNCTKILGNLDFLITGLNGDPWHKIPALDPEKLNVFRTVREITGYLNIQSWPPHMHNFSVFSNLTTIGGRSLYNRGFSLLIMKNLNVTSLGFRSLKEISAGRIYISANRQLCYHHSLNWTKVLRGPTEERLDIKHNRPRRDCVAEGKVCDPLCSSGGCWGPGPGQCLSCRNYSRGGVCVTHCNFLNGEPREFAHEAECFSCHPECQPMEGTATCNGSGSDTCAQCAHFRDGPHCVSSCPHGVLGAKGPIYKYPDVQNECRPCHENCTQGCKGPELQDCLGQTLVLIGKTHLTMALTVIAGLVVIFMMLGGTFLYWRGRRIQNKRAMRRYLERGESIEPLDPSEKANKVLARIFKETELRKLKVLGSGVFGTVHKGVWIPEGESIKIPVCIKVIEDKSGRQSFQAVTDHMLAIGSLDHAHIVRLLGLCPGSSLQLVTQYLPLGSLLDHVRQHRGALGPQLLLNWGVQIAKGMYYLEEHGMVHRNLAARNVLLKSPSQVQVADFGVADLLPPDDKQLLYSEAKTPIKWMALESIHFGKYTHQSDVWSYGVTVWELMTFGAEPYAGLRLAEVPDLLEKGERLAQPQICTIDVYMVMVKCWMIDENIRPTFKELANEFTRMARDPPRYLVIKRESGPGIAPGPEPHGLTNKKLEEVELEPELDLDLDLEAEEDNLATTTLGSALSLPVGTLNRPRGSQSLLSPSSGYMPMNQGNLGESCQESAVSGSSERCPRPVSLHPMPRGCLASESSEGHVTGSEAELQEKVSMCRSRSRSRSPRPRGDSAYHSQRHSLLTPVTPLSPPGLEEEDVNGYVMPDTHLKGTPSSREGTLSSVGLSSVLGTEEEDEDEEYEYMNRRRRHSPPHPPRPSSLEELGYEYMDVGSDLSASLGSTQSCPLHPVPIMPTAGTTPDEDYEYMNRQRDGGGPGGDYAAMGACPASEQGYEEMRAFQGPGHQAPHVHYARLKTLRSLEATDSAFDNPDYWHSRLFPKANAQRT

In the case of “ErbB3-specific aptamer: aptamer that recognizes the ErbB3 receptor, sequence from Chen et al., PNAS 2003; labeled at 5′ end with Fluoroscein (DNA CAGCGAAAGUUGCGUAUGGGUCACAUCGCAGGCACAUGUCAUCUGGGCG; 5' fluorescein label, chemistry of the aptamer otherwise not given here)”, the “aptamer localization, OVCAR3 (target) versus PA-1 (non-target)” value with ErbB3 receptor was “localized specifically to the OVCAR3 cell line”. In addition, in the data set on HER2, the “hrg-dependent tyrosine phosphorylation of HER2” value was “inhibited”. Also, in the data set on MCF7 cells, the “hrg-induced growth response of MCF7 cells” value is reported as “inhibited”.
“chlorin e6 monoethylendiamine monamide [CMA]”: the solubility entry in data set [1] is given as “soluble in water”.
